In PMC6802219, “A kinase-independent role for CDK8 in BCR-ABL1^+ leukemia” (Nature Communications, 2019):
Read-outs that look alike come from different tables or passages of the source.

How the values were obtained:
#11 = assay: cells; parameters: species or system primary ALL patient cells; 3H-thymidine incorporation proliferation assay in primary ALL patient cells; settings: 48 h
Method: (§1) Synthesis details of YKL-06-101 and JH-XI-10-02 are provided in Supplementary Notes 1 and 2. Proliferation of degrader-exposed human leukemic cell lines and primary ALL patient cells were examined by measuring 3H-thymidine uptake after 48 h. For immunoblottings and FACS analysis, cells were incubated with the indicated concentrations of the degraders up to 96 h.  Fig. 7 Chemical CDK8 degradation cooperates with mTOR inhibition. a Co-expression matrix of CDK8 and members of mTOR/PI3K signaling pathways in samples of 203 pediatric ALL patients (TARGET cohort, RNA-seq) and b 179 AML patients (TCGA AML cohort, RNA-seq). […] DMSO was used as vehicle control (D: DMSO, n = 3). Immunoblots show mTOR, CDK8, and pS6 after incubation of f REH cells or g Z119 cells with 0.5 µM and 1 µM of JH-XI-10-02 or YKL-06-101 for 48, 72, and 96 h. DMSO (indicated as D) was used as vehicle control and β-actin served as loading control. h AnnexinV/7AAD staining of Z119 cells incubated with 0.5 µM and 1 µM of JH-XI-10-02 or YKL-06-101 for 72 and 96 h. DMSO was used as a vehicle control (D: DMSO, n = 3). i AnnexinV/7AAD staining of Z119 cells incubated with Torin1, JH-XI-10-02, or both in combination with indicated concentrations for 72 and 96 h. DMSO (indicated as D) was used as a vehicle control. One representative experiment out of three is depicted. j Bar diagram depicts relative thymidine incorporation of six primary B-ALL patient samples incubated for 48 h with 1 μM of YKL-06-101. Patient #1 represents a non-responder, patient #4 was BCR-ABL1^+ (Ph^+), whereas the others were BCR-ABL1^− (Ph^−). Levels of significance were calculated using Kruskal–Wallis test followed by Dunn’s test, data represents means ± SD (*p < 0.05, **p < 0.01). Source data are provided as a Source Data file

#12 = assay: cells; parameters: species or system primary ALL patient cells; 3H-thymidine incorporation proliferation assay in primary ALL patient cells; settings: 48 h
Method: as §1

#13 = assay: cells; parameters: species or system primary ALL patient cells; 3H-thymidine incorporation proliferation assay in primary ALL patient cells; settings: 48 h
Method: as §1

#14 = assay: cells; parameters: species or system primary ALL patient cells; 3H-thymidine incorporation proliferation assay in primary ALL patient cells; settings: 48 h
Method: as §1

#15 = assay: cells; parameters: species or system primary ALL patient cells; 3H-thymidine incorporation proliferation assay in primary ALL patient cells; settings: 48 h
Method: as §1

#1 = assay: cells; parameters: species or system primary ALL patient cells; 3H-thymidine incorporation proliferation assay in primary ALL patient cells; settings: 48 h
Method: as §1

#3 = assay: cells; parameters: species or system primary ALL patient cells; 3H-thymidine incorporation proliferation assay in primary ALL patient cells; settings: 48 h
Method: as §1

#4 = assay: cells; parameters: species or system primary ALL patient cells; 3H-thymidine incorporation proliferation assay in primary ALL patient cells; settings: 48 h
Method: as §1

#6 = assay: cells; parameters: species or system primary ALL patient cells; 3H-thymidine incorporation proliferation assay in primary ALL patient cells; settings: 48 h
Method: as §1

#7 = assay: cells; parameters: species or system primary ALL patient cells; 3H-thymidine incorporation proliferation assay in primary ALL patient cells; settings: 48 h
Method: as §1

#8 = assay: cells; parameters: species or system primary ALL patient cells; 3H-thymidine incorporation proliferation assay in primary ALL patient cells; settings: 48 h
Method: as §1

#9 = assay: cells; parameters: species or system primary ALL patient cells; 3H-thymidine incorporation proliferation assay in primary ALL patient cells; settings: 48 h
Method: as §1

CDK8 = CDK8 (Homo sapiens, UniProt P49336); assay: CDK8 kinase inhibition IC50 (assay not detailed in main text); type: biochemical
CDK8, sequence (P49336 whole entry): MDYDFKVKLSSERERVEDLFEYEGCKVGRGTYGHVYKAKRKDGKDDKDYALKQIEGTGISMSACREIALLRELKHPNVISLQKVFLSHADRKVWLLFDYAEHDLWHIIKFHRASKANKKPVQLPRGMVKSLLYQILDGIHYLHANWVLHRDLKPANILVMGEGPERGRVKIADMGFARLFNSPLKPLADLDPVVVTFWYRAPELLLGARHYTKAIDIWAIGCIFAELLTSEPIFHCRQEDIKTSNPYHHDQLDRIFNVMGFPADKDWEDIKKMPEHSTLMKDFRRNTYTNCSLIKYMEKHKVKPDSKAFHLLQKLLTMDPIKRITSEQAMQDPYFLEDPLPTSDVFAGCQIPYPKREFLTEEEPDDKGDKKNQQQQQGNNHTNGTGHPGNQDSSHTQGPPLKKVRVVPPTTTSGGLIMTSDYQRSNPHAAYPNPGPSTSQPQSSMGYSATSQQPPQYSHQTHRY

**Q.** For `CN(C(=O)CCOCCOCCOCCOCCNc1cccc2c1C(=O)N(C1CCC(=O)NC1=O)C2=O)[C@H]1CC[C@@]2(C)[C@@H](CC[C@@H]3[C@@H]2CC[C@]2(C)[C@@H](c4ccc5ccncc5c4)CC[C@@H]32)C1` (stereo partly shown) [JH-XI-10-02], which IC50 (#11; read-out: JH-XI-10-02 IC50) is on record?
**A.** > 10 µM

**Q.** What about the IC50 (#12; read-out: JH-XI-10-02 IC50) of the same compound?
**A.** > 10 µM

**Q.** What about the IC50 (#13; read-out: JH-XI-10-02 IC50) of the same compound?
**A.** > 10 µM

**Q.** And the IC50 (#14; read-out: JH-XI-10-02 IC50)?
**A.** > 10 µM

**Q.** And the IC50 (#15; read-out: JH-XI-10-02 IC50)?
**A.** > 10 µM

**Q.** And the IC50 (#1; read-out: JH-XI-10-02 IC50)?
**A.** > 10 µM

**Q.** What about the IC50 (#3; read-out: JH-XI-10-02 IC50) of the same compound?
**A.** > 10 µM

**Q.** What about the IC50 (#4; read-out: JH-XI-10-02 IC50) of the same compound?
**A.** > 10 µM

**Q.** What about the IC50 (#6; read-out: JH-XI-10-02 IC50) of the same compound?
**A.** > 10 µM

**Q.** What about the IC50 (#7; read-out: JH-XI-10-02 IC50) of the same compound?
**A.** > 10 µM

**Q.** What about the IC50 (#8; read-out: JH-XI-10-02 IC50) of the same compound?
**A.** > 10 µM

**Q.** What about the IC50 (#9; read-out: JH-XI-10-02 IC50) of the same compound?
**A.** > 10 µM

**Q.** What does the source list for `O=C1CCC(N2C(=O)c3cccc(NCCOCCOCCOCCOCCOCCC(=O)N4CCN(c5ccc(-n6c(=O)ccc7cnc8ccc(-c9ccc%10ccncc%10c9)cc8c76)cc5C(F)(F)F)CC4)c3C2=O)C(=O)N1` (stereo not shown) [YKL-06-101]?
**A.** IC50 (#11; read-out: YKL-06-101 IC50): 0.4 µM; IC50 (#12; read-out: YKL-06-101 IC50): > 10 µM; IC50 (#13; read-out: YKL-06-101 IC50): 0.3 µM; IC50 (#14; read-out: YKL-06-101 IC50): > 10 µM; IC50 (#15; read-out: YKL-06-101 IC50): 10 µM; IC50 (#1; read-out: YKL-06-101 IC50): > 10 µM; IC50 (#3; read-out: YKL-06-101 IC50): 0.9 µM; IC50 (#4; read-out: YKL-06-101 IC50): > 10 µM; IC50 (#6; read-out: YKL-06-101 IC50): 0.1 µM; IC50 (#7; read-out: YKL-06-101 IC50): > 10 µM; IC50 (#8; read-out: YKL-06-101 IC50): > 10 µM; IC50 (#9; read-out: YKL-06-101 IC50): 9 µM

**Q.** THZ4-55 was tested. Which IC50 (CDK8) did it give?
**A.** 0.005 µM
